# Measurements as given in patent publication US20110293643A1, “COMPOUNDS AND METHODS FOR INHIBITING MMP2 AND MMP9” (priority 2009, published 2011).
# How the values were obtained:
# CD4+ T cells = assay: anti-CD3 induced T cell proliferation (3H thymidine incorporation), CD4+ T cells; type: cell-based, mouse
# Procedure: (§1) The non-specific MMP inhibitor, 1,10-phenanthroline (Sigma, St. Louis, Mo.) was reconstituted to 1 M solution in dimethyl sulfoxide (DMSO) and diluted to 0.001-0.1 μM in complete RPMI (cRPMI), composed of RPMI, […] L-glutamine, 100 U penicillin streptomycin (Gibco, Carlsbad, Calif.), 10% FCS (Hyclone, Logan, Utah), and 5×10^−5 M 2-mercaptoethanol (Sigma, St. Louis, Mo.).
# (§2) CD4^+ or CD8^+ T cells were isolated from wild-type Balb/c or C57BL/6 mice (1×10^6/ml) and incubated with the indicated concentrations of MMPIs or vehicle control for 6 hours. The treated cells were then washed three times in RPMI and cultured (1×10^5/well) in a 96 well plate in 200 μl of cRPMI in the presence of anti-CD3 antibody (0.5-1 μg/ml, BD Biosciences, San Jose, Calif.) at 37° C. for 72 hours and harvested as previously reported (Sumpter et al., 2008). This generalized protocol was used to measure T cell proliferation of CD4^+ and CD8^+ T cells following the various isolation methods and treatment conditions indicated. In MMP deficient parallel studies, MMP2−/−, MMP9−/−, MMP2/9−/− mice and littermate controls were cultured in the presence of anti-CD3 antibody for 72 h. […] The cells were washed three times in RPMI and added at varying ratios (treated: untreated) in co-culture with untreated CD4^+25− T cells in the presence of γ-irradiated antigen presenting cells in 200 μl of cRPMI at 37° C. for 72 hours and harvested as previously reported (Sumpter et al., 2008).
# T cells [1] = assay: cell viability after 1,10-phenanthroline treatment; type: cell-based, mouse; conditions: high phenanthroline concentrations
# Wistar-Kyoto rat = conditions: rat ischemia reperfusion injury, Iwata et al. 2008; cited from earlier work
# rat = rat lung transplantation; cited from earlier work
# CD8+ T cells [2] = assay: anti-CD3 induced T cell proliferation (3H thymidine incorporation), CD8+ T cells; type: cell-based, mouse
# Procedure: as §1
# CD4^+ or CD8^+ T cells were isolated from wild-type Balb/c or C57BL/6 mice (1×10^6/ml) and incubated with the indicated concentrations of MMPIs or vehicle control for 6 hours. The treated cells were then washed three times in RPMI and cultured (1×10^5/well) in a 96 well plate in 200 μl of cRPMI in the presence of anti-CD3 antibody (0.5-1 μg/ml, BD Biosciences, San Jose, Calif.) at 37° C. for 72 hours and harvested as previously reported (Sumpter et al., 2008). This generalized protocol was used to measure T cell proliferation of CD4^+ and CD8^+ T cells following the various isolation methods and treatment conditions indicated. In MMP deficient parallel studies, MMP2−/−, MMP9−/−, MMP2/9−/− mice and littermate controls were cultured in the presence of anti-CD3 antibody for 72 h. […]
# T cells [3] = assay: cell viability by trypan blue exclusion and annexin V staining after SB-3CT; type: cell-based, mouse; conditions: following treatment with SB-3CT
# Excerpt: The data described in the Examples herein thus far raise the possibility that SB-3CT-induced cytotoxicity or anergy could account for the observed effects on proliferation.
# MMP9 [4] = molecular target: T1, MMP9 (Mus musculus, UniProt P41245); assay: MMP9 protein expression by gelatin zymography in CD8+ T cells; type: cell-based; conditions: 10 μM
# T1 construct: Cell lysates and conditioned media supernatant were collected, concentrated to 4× and centrifuged; endogenous in cells; host or cells: primary splenic CD8+ T cells from wild-type C57BL/6 mice
# T1 sequence (P41245 108-730): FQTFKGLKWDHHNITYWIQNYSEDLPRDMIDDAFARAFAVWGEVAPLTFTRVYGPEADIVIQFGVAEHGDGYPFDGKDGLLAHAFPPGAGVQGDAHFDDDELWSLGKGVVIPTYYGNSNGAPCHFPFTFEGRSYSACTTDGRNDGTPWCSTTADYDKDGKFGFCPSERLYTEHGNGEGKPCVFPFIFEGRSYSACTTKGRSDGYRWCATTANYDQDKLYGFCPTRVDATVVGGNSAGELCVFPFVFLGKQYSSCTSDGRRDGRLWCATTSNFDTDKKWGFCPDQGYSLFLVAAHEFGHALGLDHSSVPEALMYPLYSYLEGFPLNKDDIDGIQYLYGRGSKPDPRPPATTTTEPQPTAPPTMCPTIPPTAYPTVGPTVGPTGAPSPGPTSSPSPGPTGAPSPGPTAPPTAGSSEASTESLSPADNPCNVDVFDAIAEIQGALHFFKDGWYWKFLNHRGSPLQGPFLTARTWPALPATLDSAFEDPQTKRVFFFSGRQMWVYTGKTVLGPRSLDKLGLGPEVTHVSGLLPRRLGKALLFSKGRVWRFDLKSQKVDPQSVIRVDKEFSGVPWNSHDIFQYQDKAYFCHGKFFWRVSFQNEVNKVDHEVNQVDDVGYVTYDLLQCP
# Procedure: Cell lysates and conditioned media supernatant were collected, concentrated to 4× and centrifuged to remove any cell debris, and stored at −80° C. prior to assay. Samples were then subjected to zymography as reported previously (Yoshida et al., 2007).
# CD8+ T cells [5] = assay: anti-CD3 induced intracellular calcium flux (Fluo-4 NW); type: cell-based, mouse; conditions: 10 μM
# Procedure: Calcium flux was measured in CD4^+ and CD8^+ wild-type or MMP9 deficient or SB-3CT-treated (10 μM) T cells using the Fluo-4 NW Calcium Assay kit (Molecular Probes, Carlsbad, Calif.) in accord with the manufacturer's protocol. Cells were then stimulated with anti-CD3 antibody (10 μg/ml) and read in real time on a Molecular Devices FlexStation I (Sunnyvale, Calif.) for 300 seconds.
# NFATc1 = NFATc1 transcript expression by quantitative RT PCR in CD4+ T cells; type: cell-based, mouse; conditions: 5-20 μM, anti-CD3, vs vehicle (FIG. 5C)
# Procedure: (§3) Purified CD4^+ T cells were incubated with the indicated concentrations of SB3-CT for 6 hours and then washed three times with RPMI 1640. Drug or vehicle-treated T cells were cultured (1×10^6/ml) with anti-CD3 antibody (0.5 μg/ml) in cRPMI for 1-12 hours. Cells were collected and total RNA was isolated using an RNeasy RNA extraction kit (Qiagen, Inc., Valencia, Calif.) and mRNA expression levels were detected with PerfeCTa™ SYBR Green FastMix, Low ROX (Quanta Biosciences, Gaithersburg, Md.) on a Applied Biosystems 7500 according to the manufacturer's instructions. Each sample was normalized to murine β-actin. Primer sequences were designed and optimized using routine methodologies to specifically amplify each cytokine based on publicly available sequences.
# CD25 = CD25 transcript expression by quantitative RT PCR in CD4+ T cells; type: cell-based, mouse; conditions: 5-20 μM, anti-CD3, vs vehicle (FIG. 5D)
# Procedure: as §3
# IL-2 [6] = assay: IL-2 transcript expression by quantitative RT PCR; type: cell-based, mouse; conditions: 10 μM, various time points, anti-CD3, CD4+ T cells (FIG. 6C, D)
# Procedure: as §3
# IL-2 [7] = assay: IL-2 protein expression by cytometric bead array; type: cell-based, mouse; conditions: 10 μM, various time points, anti-CD3, CD4+ T cells (FIG. 6C, D)
# Procedure: Purified MMP9 deficient or SB-3CT-treated (10 μM) CD4^+ T cells were incubated for 6 hours and then washed three times with RPMI 1640. MMP9 deficient or SB-3CT-treated T cells were cultured (1×10^6/ml) with anti-CD3 antibody (0.5 μg/ml) in cRPMI for 1-12 hours. Supernatants were collected and cytokine protein levels were measured using the Mouse Inflammatory Cytokine Bead Array Kit (BD Biosciences, San Jose, Calif.) according to the manufacturer's instructions.
# Foxp3 = Foxp3 transcript expression by quantitative RT PCR in CD4+ T cells; type: cell-based, mouse; conditions: 10 μM, anti-CD3, CD4+ T cells (FIG. 7B)
# Procedure: as §3
# CD4+25− T cells = assay: T cell suppressor assay with SB-3CT-treated CD4+25− T cells; type: cell-based, mouse
# Procedure: as §2
# CD4+25+ T cells (Tregs) = assay: T cell suppressor assay with SB-3CT-treated CD4+25+ T cells (Tregs); type: cell-based, mouse; conditions: 10 μM treated CD4+25+ T cells, varying ratios (FIG. 7E)
# Procedure: as §2
# [8] = test system: OT-I transgenic CD8+ T cells; assay: antigen-specific proliferation of OT-I transgenic CD8+ T cells with OVA-pulsed APCs; type: cell-based, mouse; conditions: 5-20 μM, SIINFEKL-pulsed APCs, 72 hours (FIG. 8A)
# CC10-OVA mice = assay: antigen-specific CD8+ T cell mediated lung injury, adoptive transfer of treated OT-I cells into CC10-OVA mice; type: in vivo, mouse
# Procedure: Lymph node and spleen were isolated from Thy1.1^+ OT-I transgenic mice and splenic CD8^+ T cells were isolated as stated above. […] 5×10^7 γ-irradiated wild-type splenocytes were cultured in 30 ml of 10% DMEM supplemented with 0.7 μg/ml of OVA peptide ([…]) for 5 min, followed by the addition of OT-1 Thy1.1^+ CD8^+ T cells (5×10^6), anti-CD28 antibody (2 μg/ml), IL-2 (132.02 U/ml) and IL-12 (10 ng/ml). On day 3, the cells were split and supplemented with more IL-2 (25 U/ml) in a final volume of 30 ml. On day 5, cells were harvested and prepared for adoptive transfer into CC10-OVA mice. Cells were resuspended in PBS, and 7.5×10^5 cells were intratracheally instilled into the lungs of CC10-OVA mice.
# The lung was finely minced on ice, followed by a 60-90 minute digestion at 37° C. with collagenase/dispase (0.2 mg/ml of each) in RPMI medium with 5% fetal calf serum (FCS), in the presence of 25 μg/ml DNase. Cells were passed through a 70 μm cell strainer, washed, and lung lymphocytes were isolated by density centrifugation. Cells were resuspended in FACS buffer (10% BSA in PBS) and analyzed immediately on a FACScan flow cytometer (Beckton Dickinson). FCS Express (DeNovo Software, Los Angeles, Calif.) was used for further analysis.
# BAL was collected from the lungs of wild-types and CC10 mice following adoptive transfer of vehicle and SB-3CT-treated OT-1 Tg T cells, by washing the mouse lung with 1.0 ml of sterile 1×PBS. Collected fluid was then centrifuged for 10 minutes at 2000 rpm. Cell pellets were resuspended in 200 μl of sterile 1×PBS. Cells were then stained with anti-GR1 antibody and analyzed immediately on a FACScan flow cytometer (Beckton Dickinson). FCS Express (DeNovo Software, Los Angeles, Calif.) was used for further analysis.
# Lungs were perfused, inflated and fixed with neutral buffered formalin. The sections were then embedded in paraffin, sectioned, and stained with hematoxylin and eosin. Images were acquired at 20× using an Olympus microscope and DP12 digital camera (Olympus, Center Valley, Pa.).
# MMP9 [9] = molecular target: MMP9 (Homo sapiens, UniProt P14780); conditions: Brown et al., 2000, Toth et al., Forbes et al., 2009; cited from earlier work
# Sequence of MMP9 (Homo sapiens, UniProt P14780) (P14780 94-707): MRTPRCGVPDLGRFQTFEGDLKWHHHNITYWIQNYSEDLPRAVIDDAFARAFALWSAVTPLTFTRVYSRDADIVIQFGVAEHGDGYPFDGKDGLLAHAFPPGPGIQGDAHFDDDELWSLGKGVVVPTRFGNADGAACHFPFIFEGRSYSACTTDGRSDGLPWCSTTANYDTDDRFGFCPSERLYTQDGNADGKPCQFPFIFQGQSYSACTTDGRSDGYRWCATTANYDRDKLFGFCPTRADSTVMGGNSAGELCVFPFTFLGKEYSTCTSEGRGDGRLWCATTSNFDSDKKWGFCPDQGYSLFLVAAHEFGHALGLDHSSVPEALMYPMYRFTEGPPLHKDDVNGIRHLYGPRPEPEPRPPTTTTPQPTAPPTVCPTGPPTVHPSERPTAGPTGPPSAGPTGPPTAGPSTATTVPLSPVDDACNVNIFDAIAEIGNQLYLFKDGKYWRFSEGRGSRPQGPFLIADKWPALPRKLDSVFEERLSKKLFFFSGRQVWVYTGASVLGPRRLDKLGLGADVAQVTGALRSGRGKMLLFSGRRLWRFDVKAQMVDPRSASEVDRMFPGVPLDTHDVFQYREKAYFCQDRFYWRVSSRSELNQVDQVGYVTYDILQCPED
molecule,measurement,setting,value
"c1cnc2c(c1)ccc1cccnc12 [1,10-phenanthroline]",T cell proliferation,"CD4+ T cells; 0.001 μM, 6 hours, then soluble anti-CD3 antibody 72 hours (FIG. 2A)",proliferative response similar to untreated anti-CD3 antibody stimulated cells
same,T cell proliferation,"CD4+ T cells; higher doses (up to 0.1 μM), 6 hours, then anti-CD3 72 hours, p<0.001 (FIG. 2A)",significantly abrogated the proliferative response
same,cell viability after treatment,T cells [1],cells were viable after treatment
NC(=O)C1=C(O)C[C@@H]2C[C@@H]3Cc4cccc(O)c4C(=O)C3=C(O)[C@]2(O)C1=O [COL-3],T cell proliferation,"CD4+ T cells; 1 μM, 6 hours, then anti-CD3 72 hours (FIG. 2B)",proliferative response similar to the untreated control
same,T cell proliferation,"CD4+ T cells; higher doses (up to 100 μM), p<0.001 (FIG. 2B)",dose-dependent decrease in T cell proliferation
same,antigenic collagen (V) in bronchoalveolar lavage,Wistar-Kyoto rat,lower levels
same,inflammation factors,Wistar-Kyoto rat,reduced inflammation factors
same,intragraft B cell hyperplasia,rat,induce intragraft B cell hyperplasia
O=S(=O)(CC1CS1)c1ccc(Oc2ccccc2)cc1 (stereo not drawn) [SB-3CT],T cell proliferation,"CD4+ T cells; 5-25 μM, anti-CD3 72 h, vs vehicle-treated cells (FIG. 2C)",dose-dependent decrease in proliferation
same,T cell proliferation with exogenous IL-2,"CD4+ T cells; anti-CD3 plus exogenous murine IL-2, 72 h (FIG. 2E)",partial recovery of the proliferative response
same,T cell proliferation,"CD8+ T cells [2]; 5-25 μM, anti-CD3 72 h, vs vehicle-treated cells (FIG. 2D)",dose-dependent decrease in proliferation
same,T cell proliferation with exogenous IL-2,"CD8+ T cells [2]; anti-CD3 plus exogenous murine IL-2, 72 h (FIG. 2F)",partial recovery of the proliferative response
same,cell viability,T cells [3],greater than 90%
same,MMP9 protein expression,MMP9 [4],decreased
same,calcium influx in calcium containing media,"CD8+ T cells [5]; calcium containing media, anti-CD3 (FIG. 4D)",dramatic influx of exogenous calcium
same,intracellular calcium flux (release from the ER),"CD8+ T cells [5]; calcium-free media, anti-CD3 10 μg/ml (FIG. 4C)",increased intracellular calcium flux
same,NFATc1 transcript expression,NFATc1,abrogated NFATc1 and CD25 transcript expression in a dose-dependent manner
same,CD25 transcript expression,CD25,abrogated NFATc1 and CD25 transcript expression in a dose-dependent manner
same,IL-2 transcript expression,IL-2 [6],increased over time
same,IL-2 protein expression,IL-2 [7],down regulated
same,foxp3 transcripts,Foxp3,increased
same,inhibition at 10 µM,"CD4+25− T cells; Mus musculus, T-cell, 10 μM treated CD4+25− cells, each ratio with untreated CD4+25− T cells, 72 hours (FIG. 7D), read-out: inhibition of T cell proliferation in co-culture",50%
same,induction of regulatory T cell function,CD4+25− T cells; increasing ratio of SB-3CT-treated cells (FIG. 7D),does not induce regulatory T cell function
same,suppressive function of treated Tregs,CD4+25+ T cells (Tregs),retained their suppressive function
same,antigen-specific proliferation,[8],completely abrogated the proliferative response
same,"lung histology, mononuclear cellular infiltration",CC10-OVA mice; H&E lung sections after adoptive transfer of treated OT-1 cells,mononuclear cellular infiltration was minimal
same,quantity of total BAL cells,"CC10-OVA mice; seven days after adoptive transfer of 10 μM treated OT-I cells, vs vehicle (FIG. 8B)",no differences
same,quantity of neutrophils (Gr-1+) in BAL,"CC10-OVA mice; seven days after adoptive transfer, vs vehicle, p<0.01 (FIG. 8C)",decreased significantly
same,CD8+ Thy1.1+ (donor) cells in lung parenchyma,"CC10-OVA mice; vs vehicle, p<0.01 (FIG. 9A)",significantly fewer
same,CD25 expression on CD8+ Thy1.1+ T cells in lung,"CC10-OVA mice; vs vehicle, p<0.01 (FIG. 9B)",fewer of these cells expressed the activation marker CD25
same,mode of MMP9 inhibition,MMP9 [9],tight-binding inhibition
TIMP-1: tissue-inhibitor of metalloproteinases,delayed type hypersensitivity responses to donor antigens and type V collagen,rat,differential effects
same,rejection pathology,rat,neither affected the onset of rejection pathology
